# Reference: paper PMC12675387, “Receptor interaction profiles of 4-alkoxy-2,6-dimethoxyphenethylamines (Ψ derivatives) and related amphetamines” (Frontiers in Pharmacology, 2025)
# How the values were obtained:
# [1] = biological target: T1, h5-HT1A receptor (Homo sapiens, UniProt P08908); test: Radioligand binding, 5-HT1A receptor ([3H]8-OH-DPAT)
# T1 sequence (P08908 1-422): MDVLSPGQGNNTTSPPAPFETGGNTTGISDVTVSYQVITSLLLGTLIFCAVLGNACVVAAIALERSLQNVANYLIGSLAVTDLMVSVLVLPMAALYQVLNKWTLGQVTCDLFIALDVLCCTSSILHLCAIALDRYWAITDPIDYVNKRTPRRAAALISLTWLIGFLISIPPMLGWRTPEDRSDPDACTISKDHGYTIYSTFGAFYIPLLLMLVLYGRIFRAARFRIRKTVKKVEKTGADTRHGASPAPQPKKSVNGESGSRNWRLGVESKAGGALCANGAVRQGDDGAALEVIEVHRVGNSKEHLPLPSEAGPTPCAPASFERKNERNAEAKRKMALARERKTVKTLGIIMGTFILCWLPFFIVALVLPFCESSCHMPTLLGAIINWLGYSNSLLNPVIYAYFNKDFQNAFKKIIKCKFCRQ
# [2] = biological target: rTAAR1 (Rattus norvegicus, UniProt Q923Y9); test: Radioligand binding, rat TAAR1 ([3H]RO5166017)
# [3] = biological target: T2, h5-HT2C receptor (Homo sapiens, UniProt P28335); test: Radioligand binding, 5-HT2C receptor ([3H]mesulergine)
# T2 sequence (P28335 33-458): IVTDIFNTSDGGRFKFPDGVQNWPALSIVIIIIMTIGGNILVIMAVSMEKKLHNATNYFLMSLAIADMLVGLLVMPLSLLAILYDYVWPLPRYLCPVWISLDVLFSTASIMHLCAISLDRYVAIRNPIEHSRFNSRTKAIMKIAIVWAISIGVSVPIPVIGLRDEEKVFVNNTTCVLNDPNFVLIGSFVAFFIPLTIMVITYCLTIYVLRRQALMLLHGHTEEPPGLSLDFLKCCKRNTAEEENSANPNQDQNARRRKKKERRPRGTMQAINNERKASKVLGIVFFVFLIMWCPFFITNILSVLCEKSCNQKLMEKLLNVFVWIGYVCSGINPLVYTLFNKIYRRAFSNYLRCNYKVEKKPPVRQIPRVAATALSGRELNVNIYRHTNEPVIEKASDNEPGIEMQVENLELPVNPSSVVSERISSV
# [4] = biological target: hNET (Homo sapiens, UniProt P23975); test: Radioligand binding, NET (N-methyl-[3H]nisoxetine)
# [5] = biological target: h5-HT2A receptor (Homo sapiens, UniProt P28223); test: Radioligand binding, 5-HT2A receptor ([3H]ketanserin); conditions: for fold difference in 5-HT2A receptor affinity between Ψ derivative and its 2,4,5-trisubstituted counterpart: TMA-6 vs TMA-2, Ψ-2C-O-16 vs 2C-O-16, Ψ-MALM vs MALM: higher affinity of the Ψ derivative; for Selectivity (binding ratio) 5-HT2A/5-HT1A: preference for 5-HT2A (Ki 5-HT1A divided by Ki 5-HT2A); for Selectivity (binding ratio) 5-HT2A/5-HT2C: preference for 5-HT2A (Ki 5-HT2C divided by Ki 5-HT2A)
# [6] = biological target: mTAAR1 (Mus musculus, UniProt Q923Y8); test: Radioligand binding, mouse TAAR1 ([3H]RO5166017)
# [7] = biological target: hD2 receptor (Homo sapiens, UniProt P14416); test: Radioligand binding, dopaminergic D2 receptor ([3H]spiperone)
# [8] = biological target: T3, hα1A adrenergic receptor (Homo sapiens, UniProt P35348); test: Radioligand binding, α1A adrenergic receptor ([3H]prazosin); conditions: hα1A Ki ± SD
# T3 sequence (P35348 1-466): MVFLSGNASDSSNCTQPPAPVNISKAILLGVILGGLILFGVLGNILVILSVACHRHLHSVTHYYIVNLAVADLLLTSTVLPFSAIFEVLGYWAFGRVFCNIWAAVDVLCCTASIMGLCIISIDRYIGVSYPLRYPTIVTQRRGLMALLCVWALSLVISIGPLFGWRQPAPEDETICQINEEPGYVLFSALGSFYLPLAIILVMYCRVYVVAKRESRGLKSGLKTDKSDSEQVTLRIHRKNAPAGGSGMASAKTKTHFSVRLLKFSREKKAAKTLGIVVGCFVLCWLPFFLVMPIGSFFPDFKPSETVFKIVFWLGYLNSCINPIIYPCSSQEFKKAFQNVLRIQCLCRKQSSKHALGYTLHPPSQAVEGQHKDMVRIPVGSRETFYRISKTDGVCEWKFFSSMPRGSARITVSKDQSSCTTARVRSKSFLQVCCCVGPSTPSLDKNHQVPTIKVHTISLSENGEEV
# [9] = biological target: T4, human 5-HT2A receptor (Homo sapiens, UniProt P28223); test: Activation potency and efficacy at the 5-HT2A receptor (FLIPR calcium, NIH-3T3 cells); format: cell-based; conditions: for Emax: NIH3T3, relative to 5-HT (100%), read-out: h5-HT2A activation efficacy Emax ± SD
# T4 construct: expressed in transfected cells; host or cells: NIH-3T3 mouse embryonic fibroblasts
# Description: The activation potency and efficacy at the 5-HT2A receptor were determined as previously described by [Luethi et al. (2018)]. In short, mouse embryonic fibroblasts (NIH-3T3 cells) stably transfected with the human 5-HT2A receptor were seeded in poly-D-lysine-coated 96 well plates at a density of 70,000 cells per 100 μL. Next, the cells were incubated in HEPES-Hank’s Balanced Salt Solution (HBSS) buffer (Gibco) for 1 h at 37 °C; the cells were then incubated with 100 μL of dye solution (fluorescence imaging plate reader [FLIPR] calcium 5 assay kit; Molecular Devices, Sunnyvale, CA, United States) per well for 1 h at 37 °C. The plate was then inserted into the FLIPR and 25 μL of the test compounds diluted in HEPES-HBSS buffer containing […] probenecid were added online. Increase of the fluorescence signal was measured and the activation potency (EC50) was calculated from the dose-response curves using nonlinear regression. The activation efficacy was calculated relative to 5-HT activity (defined as 100% activity).
# [10] = biological target: hDAT (Homo sapiens, UniProt Q01959); test: Radioligand binding, DAT ([3H]WIN35,428); conditions: hDAT Ki ± SD, [3H]WIN35,428
# [11] = biological target: hSERT (Homo sapiens, UniProt P31645); test: Radioligand binding, SERT ([3H]citalopram); conditions: hSERT Ki ± SD, [3H]citalopram
# hSERT, sequence (P31645 whole entry): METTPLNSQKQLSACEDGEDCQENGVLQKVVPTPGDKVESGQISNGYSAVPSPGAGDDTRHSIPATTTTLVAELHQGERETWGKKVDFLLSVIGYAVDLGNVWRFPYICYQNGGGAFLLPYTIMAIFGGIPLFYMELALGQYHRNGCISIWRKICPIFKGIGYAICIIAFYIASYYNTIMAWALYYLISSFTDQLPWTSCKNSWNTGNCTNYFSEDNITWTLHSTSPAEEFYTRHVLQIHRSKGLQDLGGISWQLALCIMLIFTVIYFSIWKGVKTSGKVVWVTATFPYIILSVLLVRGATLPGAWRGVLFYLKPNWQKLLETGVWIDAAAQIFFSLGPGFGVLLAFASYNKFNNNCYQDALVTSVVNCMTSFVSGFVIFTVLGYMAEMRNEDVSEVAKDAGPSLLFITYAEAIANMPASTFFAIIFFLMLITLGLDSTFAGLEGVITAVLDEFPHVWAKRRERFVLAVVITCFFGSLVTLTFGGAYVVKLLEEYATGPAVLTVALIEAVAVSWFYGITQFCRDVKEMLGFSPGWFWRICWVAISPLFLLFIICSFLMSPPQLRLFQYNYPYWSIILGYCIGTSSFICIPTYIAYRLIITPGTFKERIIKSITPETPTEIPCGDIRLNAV
# hNET, sequence (P23975 whole entry): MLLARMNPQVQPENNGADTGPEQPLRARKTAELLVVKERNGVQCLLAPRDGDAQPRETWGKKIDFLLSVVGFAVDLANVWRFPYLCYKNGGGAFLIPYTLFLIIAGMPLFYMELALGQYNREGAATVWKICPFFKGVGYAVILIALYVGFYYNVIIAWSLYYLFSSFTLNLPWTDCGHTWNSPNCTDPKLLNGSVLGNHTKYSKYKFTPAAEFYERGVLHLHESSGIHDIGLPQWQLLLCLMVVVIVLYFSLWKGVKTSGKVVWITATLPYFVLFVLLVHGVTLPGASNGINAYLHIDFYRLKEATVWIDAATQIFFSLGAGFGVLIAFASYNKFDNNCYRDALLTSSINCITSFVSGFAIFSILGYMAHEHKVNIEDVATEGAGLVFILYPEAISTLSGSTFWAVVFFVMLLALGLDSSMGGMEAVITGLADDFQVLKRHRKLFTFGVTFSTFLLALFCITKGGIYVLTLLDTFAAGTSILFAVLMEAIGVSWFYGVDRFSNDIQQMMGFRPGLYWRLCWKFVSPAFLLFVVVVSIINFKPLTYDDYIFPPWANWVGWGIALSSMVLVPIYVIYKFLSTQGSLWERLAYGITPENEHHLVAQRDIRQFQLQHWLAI
# hD2 receptor, sequence (P14416 whole entry): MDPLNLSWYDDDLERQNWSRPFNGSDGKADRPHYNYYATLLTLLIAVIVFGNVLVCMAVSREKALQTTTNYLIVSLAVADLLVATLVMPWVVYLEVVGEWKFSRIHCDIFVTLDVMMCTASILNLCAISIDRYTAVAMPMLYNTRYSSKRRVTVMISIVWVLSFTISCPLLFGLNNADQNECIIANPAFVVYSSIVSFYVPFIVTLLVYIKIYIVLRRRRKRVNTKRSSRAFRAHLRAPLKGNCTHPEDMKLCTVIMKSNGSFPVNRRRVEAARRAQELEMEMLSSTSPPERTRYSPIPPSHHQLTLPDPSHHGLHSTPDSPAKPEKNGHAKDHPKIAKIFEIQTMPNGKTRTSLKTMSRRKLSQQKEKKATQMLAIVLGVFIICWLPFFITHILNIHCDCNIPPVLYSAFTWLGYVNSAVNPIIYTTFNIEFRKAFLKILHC
# hDAT, sequence (Q01959 whole entry): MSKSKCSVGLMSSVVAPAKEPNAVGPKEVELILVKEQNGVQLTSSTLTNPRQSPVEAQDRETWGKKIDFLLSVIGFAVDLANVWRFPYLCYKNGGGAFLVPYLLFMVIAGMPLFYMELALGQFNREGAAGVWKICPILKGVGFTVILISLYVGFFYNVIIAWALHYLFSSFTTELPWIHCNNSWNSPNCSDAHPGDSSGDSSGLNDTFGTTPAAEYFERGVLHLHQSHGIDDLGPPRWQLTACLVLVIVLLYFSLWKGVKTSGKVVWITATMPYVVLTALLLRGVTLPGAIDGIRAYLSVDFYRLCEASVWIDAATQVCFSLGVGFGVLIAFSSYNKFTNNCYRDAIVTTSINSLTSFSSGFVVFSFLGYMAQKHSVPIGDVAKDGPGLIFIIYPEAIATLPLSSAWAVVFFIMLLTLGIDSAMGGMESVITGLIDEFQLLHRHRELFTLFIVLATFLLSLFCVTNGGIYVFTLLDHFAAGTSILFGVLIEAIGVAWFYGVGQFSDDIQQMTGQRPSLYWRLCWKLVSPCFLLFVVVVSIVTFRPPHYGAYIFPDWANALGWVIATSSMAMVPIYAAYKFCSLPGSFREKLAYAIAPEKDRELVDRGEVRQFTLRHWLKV
# T4 sequence (P28223 whole entry): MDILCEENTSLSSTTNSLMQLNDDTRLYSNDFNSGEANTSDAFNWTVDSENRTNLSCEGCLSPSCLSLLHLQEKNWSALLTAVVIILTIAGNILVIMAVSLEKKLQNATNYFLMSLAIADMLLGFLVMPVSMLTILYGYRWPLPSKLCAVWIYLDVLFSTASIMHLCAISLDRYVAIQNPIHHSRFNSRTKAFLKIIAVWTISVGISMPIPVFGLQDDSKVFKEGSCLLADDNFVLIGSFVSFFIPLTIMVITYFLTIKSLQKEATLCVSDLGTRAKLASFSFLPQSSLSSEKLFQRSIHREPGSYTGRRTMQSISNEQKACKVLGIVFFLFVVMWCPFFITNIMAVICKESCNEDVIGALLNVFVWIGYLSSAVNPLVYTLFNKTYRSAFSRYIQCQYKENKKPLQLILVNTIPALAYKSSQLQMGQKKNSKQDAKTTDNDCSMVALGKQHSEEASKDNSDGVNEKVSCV
# h5-HT2A receptor, sequence (P28223 whole entry): as above
# mTAAR1, sequence (Q923Y8 whole entry): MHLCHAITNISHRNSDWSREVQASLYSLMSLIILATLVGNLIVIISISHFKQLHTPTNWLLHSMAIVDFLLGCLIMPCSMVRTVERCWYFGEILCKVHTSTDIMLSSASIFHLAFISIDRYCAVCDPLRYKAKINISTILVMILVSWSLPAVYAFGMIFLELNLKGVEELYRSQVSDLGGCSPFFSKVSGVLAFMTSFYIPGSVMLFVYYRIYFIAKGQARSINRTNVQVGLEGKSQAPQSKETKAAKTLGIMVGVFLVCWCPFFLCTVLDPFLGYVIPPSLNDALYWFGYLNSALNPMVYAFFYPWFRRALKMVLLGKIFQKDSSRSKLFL
# rTAAR1, sequence (Q923Y9 whole entry): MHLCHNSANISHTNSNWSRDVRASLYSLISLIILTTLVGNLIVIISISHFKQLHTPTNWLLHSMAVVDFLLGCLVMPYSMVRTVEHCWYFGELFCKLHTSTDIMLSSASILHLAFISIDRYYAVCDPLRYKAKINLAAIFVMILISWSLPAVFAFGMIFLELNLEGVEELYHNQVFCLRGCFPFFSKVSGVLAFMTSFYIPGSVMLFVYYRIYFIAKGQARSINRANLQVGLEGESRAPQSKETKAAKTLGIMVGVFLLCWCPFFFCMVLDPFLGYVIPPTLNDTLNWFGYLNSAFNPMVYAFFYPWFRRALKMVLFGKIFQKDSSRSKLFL
SMILES,Ki [1] [µM],Ki [2] [µM],Ki [3] [µM],Ki [4] [µM],Ki [5] [µM],"fold difference in 5-HT2A receptor affinity between Ψ derivative and its 2,4,5-trisubstituted counterpart [5]",Selectivity (binding ratio) 5-HT2A/5-HT1A [5],Selectivity (binding ratio) 5-HT2A/5-HT2C [5],Ki [6] [µM],Ki [7] [µM],Ki [8] [µM],EC50 [9] [µM],Emax [9] [%],Ki [10] [µM],Ki [11] [µM],fold increase in 5-HT2A activation potency over non-fluorinated counterpart Ψ-2C-O-2 [9] [fold]
"COc1cc(OC)c(CC(C)N)c(OC)c1 (stereo not drawn) [TMA-6, 2,4,6-trimethoxyamphetamine]",> 5.6,0.18 ± 0.02,1.8,> 8.8,0.27 ± 0.018,2–5 fold,>21,6.7,0.85 ± 0.02,> 6,> 8.8,0.07 ± 0.032,61 ± 12,> 8.5,> 7.5,
"COc1cc(OC)c(CCN)c(OC)c1 [Ψ-2C-O-1, 2,4,6-trimethoxyphenethylamine]",0.96 ± 0.09,0.057 ± 0.012,1.2,> 8.8,0.3 ± 0.04,,3.2,4,0.59 ± 0.02,> 6,> 8.8,0.11 ± 0.02,84 ± 13,> 8.5,> 7.5,
"CCOc1cc(OC)c(CCN)c(OC)c1 [Ψ-2C-O-2, 2,6-dimethoxy-4-ethoxyphenethylamine]",0.71 ± 0.03,,1.5,> 8.8,0.4 ± 0.28,,1.8,3.8,0.23 ± 0.02,> 6,3.3,0.099 ± 0.008,53 ± 4,> 8.5,> 7.5,
"C=C(C)COc1cc(OC)c(CCN)c(OC)c1 [Ψ-2C-O-3, 2,6-dimethoxy-4-methallyloxyphenethylamine]",1.01,0.0064 ± 0.0011,0.21 ± 0.14,> 8.8,0.032 ± 0.008,,32,6.6,0.12 ± 0.02,> 6,0.99 ± 0.02,0.2 ± 0.02,23 ± 10,7.8,> 7.5,
"C=CCOc1cc(OC)c(CCN)c(OC)c1 [Ψ-2C-O-16, 4-allyloxy-2,6-dimethoxyphenethylamine]",0.91 ± 0.06,0.012,0.5 ± 0.23,> 8.8,0.054 ± 0.004,2–5 fold,17,9.3,0.15 ± 0.02,> 6,0.67 ± 0.06,0.039 ± 0.019,49 ± 20,> 8.5,> 7.5,
"COc1cc(OCCF)cc(OC)c1CCN [Ψ-2C-O-21, 2,6-dimethoxy-4-(2-fluoroethoxy)phenethylamine]",1.6,0.019 ± 0.001,3.5,> 8.8,0.97 ± 0.19,,1.6,3.6,0.32 ± 0.03,> 6,4.6,0.032 ± 0.002,55 ± 14,> 8.5,> 7.5,3
"COc1cc(OCC(F)F)cc(OC)c1CCN [Ψ-2C-O-21.5, 4-(2,2-difluoroethoxy)-2,6-dimethoxyphenethylamine]",1.3,0.014 ± 0.003,2.8,> 8.8,1.6,,0.8,1.8,0.22 ± 0.04,> 6,2,0.74 ± 0.08,31 ± 5,> 8.5,> 7.5,
"COc1cc(OCC(F)(F)F)cc(OC)c1CCN [Ψ-2C-O-22, 2,6-dimethoxy-4-(2,2,2-trifluoroethoxy)phenethylamine]",2.4,0.021 ± 0.002,2.2,> 8.8,0.6 ± 0.06,,4,3.7,0.21 ± 0.04,> 6,2,3.4,41 ± 8,> 8.5,> 7.5,
